Marks after values point to notes of the source that are not given here. One block for each compound: values may come before it.
Test system: rats
Test: 28-day repeated dose study in rats with mass spectrometry-based plasma metabolite profiling (GC-MS, LC-MS, SPE-LC-MS); treatment ratios versus control
Details: plasma; for Glycerol, polar fraction, treatment ratio versus control / Isopalmitic acid (C16:0), treatment ratio versus control / Kynurenic acid, treatment ratio versus control: Table 7b interstitial nephritis
[1] = female rats, day 7, high dose, Table 4a inhibition of weak acid excretion
[2] = female rats, day 7, high dose, Table 4b inhibition of weak acid excretion
[3] = female rats, day 14, high dose, Table 4a inhibition of weak acid excretion
[4] = female rats, day 14, high dose, Table 4b inhibition of weak acid excretion
[5] = female rats, day 28, high dose, Table 4a inhibition of weak acid excretion
[6] = female rats, day 28, high dose, Table 4b inhibition of weak acid excretion
[7] = male rats, day 7, high dose, Table 4c inhibition of weak acid excretion
[8] = male rats, day 7, high dose, Table 4d inhibition of weak acid excretion
[9] = male rats, day 14, high dose, Table 4c inhibition of weak acid excretion
[10] = male rats, day 14, high dose, Table 4d inhibition of weak acid excretion
[11] = male rats, day 28, high dose, Table 4c inhibition of weak acid excretion
[12] = male rats, day 28, high dose, Table 4d inhibition of weak acid excretion
[13] = male rats, day 7, high dose, Table 7a interstitial nephritis
[14] = male rats, day 14, high dose, Table 7a interstitial nephritis
[15] = male rats, day 28, high dose, Table 7a interstitial nephritis
[16] = male rats, day 7, high dose, Table 6b ACE inhibitor induced like toxicity
[17] = male rats, day 14, high dose, Table 6b ACE inhibitor induced like toxicity
[18] = male rats, day 28, high dose, Table 6b ACE inhibitor induced like toxicity

Description: A group of each 5 male and female rats was dosed once daily with the indicated compounds (see Table 9, below for compounds, applied doses and administration details) over 28 days.
Each dose group in the studies consisted of five rats per sex. Additional groups of each 5 male and female animals served as controls. Before starting the treatment period, animals, which were 62-64 days old when supplied, were acclimatized to the housing and environmental conditions for 7 days. All animals of the animal population were kept under the same constant temperature (20-24±3° C.) and the same constant humidity (30-70%). The animals of the animal population were fed ad libitum. The food to be used was essentially free of chemical or microbial contaminants. Drinking water was also offered ad libitum. […] The illumination period was 12 hours light followed by 12 hours darkness (12 hours light, from 6:00 to 18:00, and 12 hours darkness, from 18:00 to 6:00). […] The test substances (compounds in Table 9 were dosed and administered as described in the table above.
In the morning of day 7, 14, and 28, blood was taken from the retroorbital venous plexus from fasted anaesthetized animals. From each animal, 1 ml of blood was collected with EDTA as anticoagulant. The samples were centrifuged for generation of plasma. All plasma samples were covered with a N2 atmosphere and then stored at −80° C. until analysis.
For mass spectrometry-based metabolite profiling analyses plasma samples were extracted and a polar and a non-polar (lipid) fraction was obtained. For GC-MS analysis, the non-polar fraction was treated with methanol under acidic conditions to yield the fatty acid methyl esters. Both fractions were further derivatised with O-methyl-hydroxyamine hydrochloride and pyridine to convert Oxo-groups to O-methyloximes and subsequently with a silylating agent before analysis. In LC-MS analysis, both fractions were reconstituted in appropriate solvent mixtures. HPLC was performed by gradient elution on reversed phase separation columns.
Steroids and their metabolites were measured by online SPE-LC-MS (Solid phase extraction-LC-MS).
Following comprehensive analytical validation steps, the data for each analyte were normalized against data from pool samples. These samples were run in parallel through the whole process to account for process variability. The significance of treatment group values specific for sex, treatment duration and metabolite was determined by comparing means of the treated groups to the means of the respective untreated control groups using WELCH-test and quantified with treatment ratios versus control and p-values.

Structure (SMILES): Cc1cc(Cl)ccc1OCC(=O)O [MCPA]
- Glycerol, lipid fraction, treatment ratio versus control [1]: 1.69 *
- Linoleic acid (C18:cis[9,12]2), treatment ratio versus control [1]: 1.66 *
- Lysophosphatidylcholine (C18:2), treatment ratio versus control [1]: 1.38^
- Phosphatidylcholine (C16:0, C16:0), treatment ratio versus control [1]: 1.52 *
- Phosphatidylcholine (C16:0, C18:2), treatment ratio versus control [1]: 1.66 *
- Phosphatidylcholine (C16:0, C20:5), treatment ratio versus control [1]: 2.03 *
- Phosphatidylcholine (C16:1, C18:2), treatment ratio versus control [1]: 2.92 *
- Phosphatidylcholine (C18:0, C18:1), treatment ratio versus control [1]: 1.57 *
- Phosphatidylcholine (C18:1, C18:2), treatment ratio versus control [1]: 1.68^
- gamma-Linolenic acid (C18:cis[6,9,12]3), treatment ratio versus control [1]: 4.23 *
- Arginine, treatment ratio versus control [2]: 0.62 *
- Indole-3-lactic acid, treatment ratio versus control [2]: 0.24 *
- Ketoleucine, treatment ratio versus control [2]: 0.42 *
- Proline, treatment ratio versus control [2]: 0.61 *
- Tryptophan, treatment ratio versus control [2]: 0.17 *
- trans-4-Hydroxyproline, treatment ratio versus control [2]: 0.57^
- Glycerol, lipid fraction, treatment ratio versus control [3]: 1.38 *
- Linoleic acid (C18:cis[9,12]2), treatment ratio versus control [3]: 1.36 *
- Lysophosphatidylcholine (C18:2), treatment ratio versus control [3]: 1.45 *
- Phosphatidylcholine (C16:0, C16:0), treatment ratio versus control [3]: 1.8 *
- Phosphatidylcholine (C16:0, C18:2), treatment ratio versus control [3]: 1.82 *
- Phosphatidylcholine (C16:0, C20:5), treatment ratio versus control [3]: 2.09 *
- Phosphatidylcholine (C16:1, C18:2), treatment ratio versus control [3]: 2.88 *
- Phosphatidylcholine (C18:0, C18:1), treatment ratio versus control [3]: 1.74 *
- Phosphatidylcholine (C18:1, C18:2), treatment ratio versus control [3]: 2.12 *
- gamma-Linolenic acid (C18:cis[6,9,12]3), treatment ratio versus control [3]: 2.93 *
- Arginine, treatment ratio versus control [4]: 0.58 *
- Indole-3-lactic acid, treatment ratio versus control [4]: 0.24 *
- Ketoleucine, treatment ratio versus control [4]: 0.21 *
- Proline, treatment ratio versus control [4]: 0.45 *
- Tryptophan, treatment ratio versus control [4]: 0.18 *
- trans-4-Hydroxyproline, treatment ratio versus control [4]: 0.47 *
- Glycerol, lipid fraction, treatment ratio versus control [5]: 1.6 *
- Linoleic acid (C18:cis[9,12]2), treatment ratio versus control [5]: 1.28 *
- Lysophosphatidylcholine (C18:2), treatment ratio versus control [5]: 1.35 *
- Phosphatidylcholine (C16:0, C16:0), treatment ratio versus control [5]: 1.78 *
- Phosphatidylcholine (C16:0, C18:2), treatment ratio versus control [5]: 1.45 *
- Phosphatidylcholine (C16:0, C20:5), treatment ratio versus control [5]: 1.61 *
- Phosphatidylcholine (C16:1, C18:2), treatment ratio versus control [5]: 2.45 *
- Phosphatidylcholine (C18:0, C18:1), treatment ratio versus control [5]: 1.56 *
- Phosphatidylcholine (C18:1, C18:2), treatment ratio versus control [5]: 1.78 *
- gamma-Linolenic acid (C18:cis[6,9,12]3), treatment ratio versus control [5]: 2.99 *
- Arginine, treatment ratio versus control [6]: 0.58 *
- Indole-3-lactic acid, treatment ratio versus control [6]: 0.23 *
- Ketoleucine, treatment ratio versus control [6]: 0.15 *
- Proline, treatment ratio versus control [6]: 0.42 *
- Tryptophan, treatment ratio versus control [6]: 0.16 *
- trans-4-Hydroxyproline, treatment ratio versus control [6]: 0.6 *
- 3-Indoxylsulfate, treatment ratio versus control [7]: 0.72^
- Aspartate, treatment ratio versus control [7]: 0.58 *
- Ceramide (d18:1, C24:0), treatment ratio versus control [7]: 1.2
- Cholesterolester No 01, treatment ratio versus control [7]: 0.97^
- Lysophosphatidylethanolamine (C22:5), treatment ratio versus control [7]: 1.16^
- Phosphatidylcholine (C16:0, C20:5), treatment ratio versus control [7]: 1.73 *
- gamma-Linolenic acid (C18:cis[6,9,12]3), treatment ratio versus control [7]: 1.69 *
- Arachidonic acid (C20:cis[5,8,11,14]4), treatment ratio versus control [8]: 0.27 *
- Arginine, treatment ratio versus control [8]: 0.72 *
- Aspartate, treatment ratio versus control [8]: 0.58 *
- Choline plasmalogen (C18, C20:4), treatment ratio versus control [8]: 0.64 *
- Cytosine, treatment ratio versus control [8]: 0.63 *
- Glucose, treatment ratio versus control [8]: 0.75 *
- Indole-3-lactic acid, treatment ratio versus control [8]: 0.36 *
- Lysine, treatment ratio versus control [8]: 0.4 *
- Lysophosphatidylcholine (C18:0), treatment ratio versus control [8]: 0.81 *
- Methionine, treatment ratio versus control [8]: 0.66 *
- Nervonic acid (C24:cis[15]1), treatment ratio versus control [8]: 0.67 *
- Phosphatidylcholine (C18:0, C20:4), treatment ratio versus control [8]: 0.36 *
- Ribal, treatment ratio versus control [8]: 0.94 *
- 3-Indoxylsulfate, treatment ratio versus control [9]: 1.53 *
- Aspartate, treatment ratio versus control [9]: 1.01^
- Ceramide (d18:1, C24:0), treatment ratio versus control [9]: 2.39 *
- Cholesterolester No 01, treatment ratio versus control [9]: 1.27 *
- Lysophosphatidylethanolamine (C22:5), treatment ratio versus control [9]: 1.08^
- Phosphatidylcholine (C16:0, C20:5), treatment ratio versus control [9]: 1.82 *
- gamma-Linolenic acid (C18:cis[6,9,12]3), treatment ratio versus control [9]: 2.68 *
- Arachidonic acid (C20:cis[5,8,11,14]4), treatment ratio versus control [10]: 0.42 *
- Arginine, treatment ratio versus control [10]: 0.57 *
- Aspartate, treatment ratio versus control [10]: 1.01^
- Choline plasmalogen (C18, C20:4), treatment ratio versus control [10]: 0.76 *
- Cytosine, treatment ratio versus control [10]: 0.63 *
- Glucose, treatment ratio versus control [10]: 0.72 *
- Indole-3-lactic acid, treatment ratio versus control [10]: 0.38
- Lysine, treatment ratio versus control [10]: 0.3 *
- Lysophosphatidylcholine (C18:0), treatment ratio versus control [10]: 0.83 *
- Methionine, treatment ratio versus control [10]: 0.59 *
- Nervonic acid (C24:cis[15]1), treatment ratio versus control [10]: 0.74 *
- Phosphatidylcholine (C18:0, C20:4), treatment ratio versus control [10]: 0.55 *
- Ribal, treatment ratio versus control [10]: 0.89 *
- 3-Indoxylsulfate, treatment ratio versus control [11]: 1.92 *
- Aspartate, treatment ratio versus control [11]: 0.69^
- Ceramide (d18:1, C24:0), treatment ratio versus control [11]: 1.72 *
- Cholesterolester No 01, treatment ratio versus control [11]: 1.32 *
- Lysophosphatidylethanolamine (C22:5), treatment ratio versus control [11]: 1.1
- Phosphatidylcholine (C16:0, C20:5), treatment ratio versus control [11]: 2.11 *
- gamma-Linolenic acid (C18:cis[6,9,12]3), treatment ratio versus control [11]: 2.54 *
- Arachidonic acid (C20:cis[5,8,11,14]4), treatment ratio versus control [12]: 0.26 *
- Arginine, treatment ratio versus control [12]: 0.68 *
- Aspartate, treatment ratio versus control [12]: 0.69 *
- Choline plasmalogen (C18, C20:4), treatment ratio versus control [12]: 0.45 *
- Cytosine, treatment ratio versus control [12]: 0.6 *
- Glucose, treatment ratio versus control [12]: 0.6 *
- Indole-3-lactic acid, treatment ratio versus control [12]: 0.3 *
- Lysine, treatment ratio versus control [12]: 0.33 *
- Lysophosphatidylcholine (C18:0), treatment ratio versus control [12]: 0.73 *
- Methionine, treatment ratio versus control [12]: 0.64 *
- Nervonic acid (C24:cis[15]1), treatment ratio versus control [12]: 0.76 *
- Phosphatidylcholine (C18:0, C20:4), treatment ratio versus control [12]: 0.24 *
- Ribal, treatment ratio versus control [12]: 0.77 *

- Eicosanoic acid (C20:0), treatment ratio versus control [13]: 1.81 *
- Glucuronic acid, treatment ratio versus control [13]: 0.85 *
- Glycerol, polar fraction, treatment ratio versus control (male rats, day 7, high dose): 0.93^
- Isopalmitic acid (C16:0), treatment ratio versus control (male rats, day 7, high dose): 0.63 *
- Kynurenic acid, treatment ratio versus control (male rats, day 7, high dose): 0.75 *
- Glucuronic acid, treatment ratio versus control [14]: 1
- myo-Inositol-2-phosphate, treatment ratio versus control [14]: 1.01
- Glycerol, polar fraction, treatment ratio versus control (male rats, day 14, high dose): 0.86^
- Isopalmitic acid (C16:0), treatment ratio versus control (male rats, day 14, high dose): 0.54 *
- Kynurenic acid, treatment ratio versus control (male rats, day 14, high dose): 0.75 *
- Glucuronic acid, treatment ratio versus control [15]: 1
- Lignoceric acid (C24:0), treatment ratio versus control [15]: 1.3 *
- Sphingomyelin (d18:1, C16:0), treatment ratio versus control [15]: 1.09
- Threonine, treatment ratio versus control [15]: 1.55 *
- Glycerol, polar fraction, treatment ratio versus control (male rats, day 28, high dose): 0.73 *
- Isopalmitic acid (C16:0), treatment ratio versus control (male rats, day 28, high dose): 0.68 *
- Kynurenic acid, treatment ratio versus control (male rats, day 28, high dose): 0.71^
Structure (SMILES): C[C@H](CCC(=O)O)[C@H]1CC[C@H]2[C@@H]3CC[C@@H]4C[C@H](O)CC[C@]4(C)[C@H]3CC[C@]12C [Lithocholic acid]

Structure (SMILES): CCOC(=O)[C@H](CCc1ccccc1)N[C@@H](C)C(=O)N1[C@H](C(=O)O)C[C@@H]2CCC[C@@H]21 [Ramipril]
- Cytosine, treatment ratio versus control [16]: 0.7 *
- Glutamate, treatment ratio versus control [16]: 0.92 *
- Glycine, treatment ratio versus control (male rats, day 14, high dose, Table 6a ACE inhibitor induced like toxicity): 1.5 *
- Cytosine, treatment ratio versus control [17]: 0.85 *
- Glutamate, treatment ratio versus control [17]: 0.71 *
- Cytosine, treatment ratio versus control [18]: 0.91^
- Glutamate, treatment ratio versus control [18]: 0.61 *

Source: patent publication US20150011423A1, “MEANS AND METHODS FOR ASSESSING KIDNEY TOXICITY” (BASF SE, priority 2011, published 2015)
